Assay results: patent US7217724B2, “Indole, indazole, and benzazole derivative” (Dainippon Sumitomo Pharma Co., Ltd., priority 2002, dated 2007)
pEC50: −log10 of the molar value. Counter-ions that a name gives are not always drawn.

Columns and labels:
β1-adrenoceptor = test: Autonomic beat of the excised right atrium specimen (positive chronotropic action, Magnus method); parameters: species or system Hartley guinea pig; conditions: method of Experiment 2
Experimental: Effect of a medicament on autonomic beat of the excised right atrium specimen based on β1-adrenoceptor-stimulating activity (study on positive chronotropic action)
The heart of Hartley guinea pig was excised, and a right atrium specimen was prepared therefrom and the experiment was carried out thereon according to Magnus method. The specimen was hung at 34° C. in Krebs-Henseleit solution to which a mixed gas of 95% oxygen and 5% carbon dioxide was aerated, and loaded so that the maximum resting tension became about 0.5 g. The autonomic beat of the right atrium was detected through a pressure transducer, and the tension and the beat were continuously recorded onto a linear recorder. A medicament was cumulatively added every time the beat became plateau. […]
In order to show the divergence between β3-stimulating activity/β1-stimulating activity in the experimental results, the EC50 value of positive chronotropic action of the test compound of Examples obtained in Experiment 2 was divided by the EC50 value of human β3-stimulating activity of said compound obtained in Experiment 1, which is the main activity in Experiment 1. The results are expressed by relative values, which are calculated by counting the value of the reference compound (AJ 9677) as 1.

human β1-receptor = target: T1, human β1-receptor (Homo sapiens, UniProt P08588); test: Human β1-receptor stimulation test (cAMP production in THP-1 cells); assay type: cell-based
T1 construct: THP-1 cell line, i.e., cells expressing both human β2- and β1-receptors; host or cells: THP-1 cells
Text: (§1) Human β3, β2 and β1-receptor stimulation test
(§2) Human β3-receptor-stimulating activity was studied using SK-N-MC cell line, i.e., cells permanently expressing human β3- and human β1-receptors (SK-N-MC cells, purchased from Dainippon Pharmaceutical Co., Ltd.), and human β2- and β1-receptor-stimulating activities were studied using THP-1 cell line, i.e., cells expressing both human β2- and β1-receptors (THP-1 cells, purchased Dainippon Pharmaceutical Co., Ltd.).
(§3) The β3-receptor stimulating activity of a test compound (10^−9 to 10^−5 M) was studied using as an index cyclic AMP (hereinafter, referred to as cAMP) producing activity of SK-N-MC cells at almost confluent in the presence of a β1-receptor inhibitor ((±)-2-hydroxy-5-(2-((2-hydroxy-3-(4-(1-methyl-4-(trifluoromethyl)-1H-imidazol-2-yl)phenoxy)propyl)-amino)ethoxy)benzamide methanesulfonate, CGP-20712A (Sigma-Aldrich), 10^−6M), wherein said SK-N-MC cells were seeded into a 96-well plate at a cell density of 2×10^4 cells/well and had been cultured for 3 days. […] The cAMP production in the cells was measured by ELISA method. […]

human β3-receptor = target: T2, human β3-receptor (Homo sapiens, UniProt P13945); test: Human β3-receptor stimulation test (cAMP production in SK-N-MC cells); assay type: cell-based; conditions: in the presence of β1-receptor inhibitor CGP-20712A 10^−6 M, read-out: EC50 value of β3-stimulating activity
T2 construct: SK-N-MC cell line, i.e., cells permanently expressing human β3- and human β1-receptors; host or cells: SK-N-MC cells
Text: as §1, §2, §3

human β2-receptor = target: T3, human β2-receptor (Homo sapiens, UniProt P07550); test: Human β2-receptor stimulation test (cAMP production in THP-1 cells); assay type: cell-based; conditions: with CGP-20712A, activity not observed up to a maximum concentration, read-out: β2-stimulating activity
T3 construct: THP-1 cell line, i.e., cells expressing both human β2- and β1-receptors; host or cells: THP-1 cells
Text: as §1, §2, §3

T1 sequence (P08588 whole entry): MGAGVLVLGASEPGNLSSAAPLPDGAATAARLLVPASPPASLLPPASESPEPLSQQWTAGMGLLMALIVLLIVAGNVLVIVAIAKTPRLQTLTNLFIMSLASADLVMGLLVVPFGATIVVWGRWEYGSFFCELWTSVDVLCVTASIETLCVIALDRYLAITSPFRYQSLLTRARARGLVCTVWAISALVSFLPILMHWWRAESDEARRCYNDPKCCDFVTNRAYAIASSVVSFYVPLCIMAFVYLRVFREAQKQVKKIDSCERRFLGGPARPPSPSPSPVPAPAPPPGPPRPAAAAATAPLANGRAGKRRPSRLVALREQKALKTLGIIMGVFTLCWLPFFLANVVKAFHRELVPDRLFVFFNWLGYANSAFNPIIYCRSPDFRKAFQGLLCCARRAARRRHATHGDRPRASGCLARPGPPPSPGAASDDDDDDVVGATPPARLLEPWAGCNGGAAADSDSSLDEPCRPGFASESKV
T3 sequence (P07550 whole entry): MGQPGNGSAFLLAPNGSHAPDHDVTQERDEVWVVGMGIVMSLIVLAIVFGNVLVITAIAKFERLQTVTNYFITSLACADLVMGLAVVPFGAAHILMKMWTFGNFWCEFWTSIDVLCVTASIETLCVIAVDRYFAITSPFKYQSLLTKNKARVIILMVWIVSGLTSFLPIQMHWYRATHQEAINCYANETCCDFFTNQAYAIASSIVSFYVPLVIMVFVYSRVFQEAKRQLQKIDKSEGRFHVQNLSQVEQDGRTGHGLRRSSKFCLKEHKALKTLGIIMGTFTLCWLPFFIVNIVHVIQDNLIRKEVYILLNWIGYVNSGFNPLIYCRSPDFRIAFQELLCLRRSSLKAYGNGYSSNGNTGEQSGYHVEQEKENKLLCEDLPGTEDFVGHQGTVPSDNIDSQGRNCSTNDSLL
T2 sequence (P13945 whole entry): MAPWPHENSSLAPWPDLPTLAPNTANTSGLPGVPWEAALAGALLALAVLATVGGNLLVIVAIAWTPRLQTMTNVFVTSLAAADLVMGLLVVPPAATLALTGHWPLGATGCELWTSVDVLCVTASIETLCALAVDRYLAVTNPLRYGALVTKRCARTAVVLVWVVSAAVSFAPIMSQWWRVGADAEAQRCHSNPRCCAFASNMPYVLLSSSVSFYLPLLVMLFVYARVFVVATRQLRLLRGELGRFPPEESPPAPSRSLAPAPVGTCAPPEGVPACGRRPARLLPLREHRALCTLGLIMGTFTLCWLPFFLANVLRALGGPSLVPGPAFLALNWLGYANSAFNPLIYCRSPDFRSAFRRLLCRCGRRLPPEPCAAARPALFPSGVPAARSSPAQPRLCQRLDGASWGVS

Compound	β1- and/or β2-adrenoceptor-stimulating activities in the evaluation system using tissues (β1-adrenoceptor)	β1- and/or β2-adrenoceptor-stimulating activities in the conventional evaluation system (human β1-receptor; cells, method of Experiment 1 (β1 and β2, THP-1 cells))	pEC50 (human β3-receptor)	pEC50 (human β2-receptor)	pEC50 (human β1-receptor; THP-1 cells, cAMP production, with ICI-118551, activity not observed up to a maximum concentration, read-out: β1-stimulating activity)
C[C@H](Cc1c[nH]c2c(OCC(=O)O)cccc12)NC[C@H](O)c1cccc(Cl)c1 [AJ 9677, reference compound]	exhibits β1- and/or β2-adrenoceptor-stimulating activities	does not exhibit β1- and/or β2-adrenoceptor-stimulating activities	–	–	–
C[C@H](Cc1c[nH]c2c(OCC(=O)O)cccc12)NC[C@H](O)c1cccnc1 [Example 2, {3-[(2 R)-2-((2R)-2-Hydroxy-2-pyridin-3-ylethylamino)propyl]-1 H-indol-7-yloxy}acetic acid.2 trifluoroacetate]	–	–	7.32	< 5.00	< 5.00
